US9827222B2, “Treating or preventing nephrogenic diabetes insipidus” (Emory University, priority 2013, dated 2017)

How the values were obtained:
[1] = tested on: UT-A1-mIMCD3 cells; assay: cAMP in UT-A1-mIMCD3 cells; format: cell-based; conditions: 1 μM vasopressin (AVP) for 10 min; p<0.05
Protocol: FIG. 5 illustrates cAMP in UT-A1-mIMCD3 cells after treatment with 1 μM vasopressin (AVP) for 10 min, *=p<0.05.

[2] = Urine osmolality in rats after IP metformin; format: in vivo, rat; conditions: rats with normal water or water loaded for 1 week; 4 h after IP injection of metformin
Source text: (§1) Rats with normal water (blue); water loaded for 1 week (red). Mice fed lithium for 14 days (green); V2R−/− mice (brown).

[3] = Urine osmolality in lithium-treated mice; format: in vivo; conditions: mice fed lithium for 14 days; 4 h after IP injection of metformin
Source text: as §1

[4] = Urine osmolality in V2R knock-out mice (model of congenital NDI); format: in vivo; conditions: 4 h after IP injection of metformin
Source text: as §1
(§2) Preliminary data indicates AMPK phosphorylates both the UT-A1 and AQP2 proteins, both in vitro (FIG. 3) and in native rat IMCD suspensions (FIG. 4). […]. Thus, AMPK may mimic by which vasopressin increases urine concentrating ability.

[5] = tested on: UT-A1; assay: UT-A1 phosphorylation in rat inner medullary tissue; conditions: AMPK stimulation with metformin, p<0.05
Source text: as §2

[6] = tested on: AQP2; assay: AQP2 phosphorylation in rat inner medulla
Source text: Left: immune-precipitated 32P-AQP2; Right: phospho S256-AQP2.

[7] = tested on: AQP2; assay: Apical plasma membrane AQP2 in IMCDs of treated rats; format: in vivo, rat; conditions: 4 h, 100 mg/kg IP
Source text: 400×, HRP/Dab with hematoxylin stained nuclei.

NC(=O)CC[C@@H]1NC(=O)[C@H](Cc2ccccc2)NC(=O)[C@H](Cc2ccc(O)cc2)NC(=O)[C@@H](N)CSSC[C@@H](C(=O)N2CCC[C@H]2C(=O)N[C@@H](CCCN=C(N)N)C(=O)NCC(N)=O)NC(=O)[C@H](CC(N)=O)NC1=O [Vasopressin, vasopressin]
cAMP [1]: increases

CN(C)C(=N)N=C(N)N [metformin]
urine osmolality [2]: increases
urine osmolality [3]: increases
urine osmolality [4]: increases
UT-A1 phosphorylation [5]: undergo phosphorylation
pS256-AQP2 ([6]; rat inner medulla, 10^-4 M metformin with V2R inhibited using 10^-7 M tolvaptan): increases
AQP2 phosphorylation ([6]; rat inner medullary tissue, AMPK stimulation with metformin, p<0.05): undergo phosphorylation
apical plasma membrane AQP2 [7]: increases

Cc1ccccc1C(=O)Nc1ccc(C(=O)N2CCCC(O)c3cc(Cl)ccc32)c(C)c1 (stereo not drawn) [tolvaptan]
AQP2 phosphorylation (immune-precipitated 32P-AQP2) ([6]; native rat IMCDs, 10^-7 M tolvaptan & 10^-4 M metformin, compared to metformin alone): increased
